From US9321717B2, “Process for rapid identification and preparation of crystalline forms” (Allergan, Inc., priority 2011, dated 2016)
Entries after “also recorded” stand apart in the source; their conditions may differ.

Columns and labels:
[1] = Form risk assessment (FRA) crystallization workflow with XRPD form identification; assay type: physicochemical; conditions: for FRA_EV: forms from evaporation; for FRA_TC: forms from thermocycled slurrying; for Forms Found by FRA: model compounds, crystalline, used as received, * = low energy form
Description: However, certain basic elements of the polymorph screening experiments are incorporated, such as solubility estimation, solvent-mediated form transformation, as well as super saturation adjustment by cooling, antisolvent addition, and evaporation, etc. The following procedure outlines the logical steps of performing an FRA experiment: • 1. Determine the physicochemical properties of the starting material (compound as received) • 2. Estimate the solubilities of the compound in twenty-four solvents with diverse solvent properties. • 3. Design approximately sixteen crystallization experiments with appropriate solvent systems based on the results of the solubility estimations. • 4. Prepare the crystallization samples and examine their solubilities in the sixteen solvent systems at elevated temperature. • 5. Conduct the crystallization experiment according to the designed workflow. • 6. Characterize and analyze the materials isolated from the crystallization experiments.
The solubility of the API is visually estimated by the “dynamic method” in each of the twenty-four solvents. This method is used to quickly bin the solvents into different categories, such as good solvents, poor solvents, and intermediates. The following describes the general procedure of the solubility estimation: • 1. Place weighed amounts of drug in clear glass vials to which incremental volumes (20-500 μL) of solvent are added until the solution turns clear. • 2. Apply brief vortexing after each solvent addition. • 3. Calculate the approximate visual solubility of the drug in a solvent by recording the amount of solvent required to completely dissolve the known weight of drug. The preferred unit of solubility is mg/mL.
The suspensions of the drug substance in a variety of solvent systems will be subjected to temperature-cycled slurrying, which is the primary crystallization method. Sixteen sample slurries for thermo-cycled experiments should be prepared with caution to avoid complete dissolution of the solid at elevated temperatures. For slurry with a single solvent system, the initial composition should have approximately 5-10 times higher concentration than the estimated solubility value at ambient temperature. For slurry in a solvent mixture, a suspension of the compound in the antisolvent should first be prepared and followed by the introduction of the solvent to adjust the solubility. The final antisolvent to solvent volume ratio is typically between 3 and 10. Record the amount of compound initially added and the volumes of added solvent aliquots.
Appendix 1 summarizes the typical temperature programs for each experiment. Usually three heat-cool-heat temperature cycles are used. The initial fast thermocycling runs help preliminarily assessing the dissolution behavior of the samples. The slow thermocycling runs focus on generating crystals and increasing the crystallinity and form purity.
If the sample remains a clear solution after the initial thermocycling, the solution is cooled to induce super saturation. During cooling, the original solution may become supersaturated and further reach the metastable limit when spontaneous crystallization starts. Usually the final temperature is 5° C. and the cooling rate is 0.1° C. per minute to facilitate crystal growth.
If the sample is still a clear solution at 5° C., the sample vial will be transferred into a −20° C. freezer for at least 2-3 days. The sample should be regularly examined by visual inspection and/or polarized light microscope for signs of solid formation.
The antisolvents identified during the initial solubility estimation can be used for adjusting the solubility of the drug substance in the primary solvent. The combination of a solvent with a miscible antisolvent provides a continuous solvent space, which potentially maximizes the possibility of capturing a crystalline form. […]

[2] = model compounds; * = low energy form; cited from earlier work

For `NC(=O)N1c2ccccc2C=Cc2ccccc21` [Carbamazepine (E), Carbamazepine], the FRA_EV [1] was “γ”, the FRA_TC [1] was “α, β, γ” and the “Forms Found by FRA” value [1] was “α*, β*, γ”. The “Reported Forms in the Literature” value [2] was “α*, β*, γ,; also recorded: dihydrate, solvate”.
With `O=C(O)c1cc(-c2ccc(F)cc2F)ccc1O` [Diflunisal] the FRA_EV [1] was “I, IV,; also recorded: solvate” and the FRA_TC [1] was “I, II, III, IV”.
In the case of `NC(N)=Nc1nc(CSCCC(N)=NS(N)(=O)=O)cs1` [Famotidine], the FRA_EV [1] is reported as “A, C”, the FRA_TC [1] is reported as “A, C” and the “Forms Found by FRA” value [1] is reported as “A*, B, C; also recorded: (new form)”. For the same molecule, the “Reported Forms in the Literature” value [2] was “A*, B”.
In the case of `COc1ccc2c(c1)c(CC(=O)O)c(C)n2C(=O)c1ccc(Cl)cc1` [Indomethacin], the FRA_TC [1] is listed as “α, β, γ”, the “Forms Found by FRA” value [1] is listed as “α, β, γ*” and the “Reported Forms in the Literature” value [2] is listed as “α, β, γ*”.
In the case of `O=C(c1ccccc1)c1ccc2n1CCC2C(=O)O` (stereo not shown) [Ketorolac free acid], the FRA_AS ([1]; forms from antisolvent addition) is given as “solvate”, the “Forms Found by FRA” value [1] is given as “I*, solvate” and the “Reported Forms in the Literature” value [2] is given as “I*, II, III, solvate”.
In the case of `COC(=O)Nc1nc2ccc(C(=O)c3ccccc3)cc2[nH]1` [Mebendazole], the FRA_TC [1] is given as “A, B, C”, the “Forms Found by FRA” value [1] is given as “A*, B, C” and the “Reported Forms in the Literature” value [2] is given as “A*, B, C”.
In the case of `CN1C(C(=O)Nc2ccccn2)=C(O)c2ccccc2S1(=O)=O` [Piroxicam], the FRA_EV [1] is reported as “I, II”, the FRA_TC [1] is reported as “I, II,; also recorded: hydrate” and the “Forms Found by FRA” value [1] is reported as “I*, II, hydrate”. The “Reported Forms in the Literature” value [2] was “I*, II, III, hydrate”.
In the case of `CCCCCCCCCCCCCCCCCC(=O)O` [Stearic acid (E), Stearic acid], the “forms identified or generated by FRA” value [1] is reported as “both enantiotropic polymorphs”, the FRA_TC [1] is reported as “B, C” and the “Forms Found by FRA” value [1] is reported as “B*, C*”. For the same molecule, the “Reported Forms in the Literature” value [2] was “A, B*, C*, E”.
For `Nc1ccc(S(=O)(=O)Nc2nccs2)cc1` [Sulfathiazole], the FRA_TC [1] is listed as “I, II, III, IV”, the “Forms Found by FRA” value [1] is listed as “I, II, III*, IV*” and the “Reported Forms in the Literature” value [2] is listed as “I, II, III*, IV*, V”.
With `CCNC(=O)CCC/C=C\C[C@@H]1[C@@H](/C=C/[C@@H](O)CCc2ccccc2)[C@H](O)C[C@@H]1O` [bimatoprost, Bimatoprost] the “forms identified or generated by FRA” value [1] was “capture both forms”.
